The record followed here is US20220402950A1, “SUBSTITUTED BENZIMIDAZOLES AS PAD4 INHIBITORS” (BRISTOL-MYERS SQUIBB COMPANY, priority 2018, published 2022).

One may read the IC50 as the concentration that gives 50% inhibition.

The assay concerns the target human PAD4 (hPAD4) (Homo sapiens, UniProt Q9UM07). The assay is described as follows: RFMS Human PAD4 Functional Assay. It is filed as biochemical. Particulars: 5 nM hPAD4, 250 μM BAEE. As to the method:
RFMS Human PAD4 Functional Assay:
Compounds were solubilized in 100% DMSO to achieve a 10 mM compound concentration. Compound stock solutions were stored at RT. A series of dilutions were prepared in DMSO and mixed 8 times with 20 μL mixing volume. Final top concentration of compound in the assay is 50 μM.
0.13 μL of compound solution was added to 13 μL of 10 nM PAD4 in assay buffer. After 30 min 13 μl of 500 μM of BAEE was added in 25 mM hepes, pH 7.5, 5 mM NaCl, 1 mM DTT, 0.2 mg/ml BSA, 0.01% CHAPS, 50 μM Calcium, 5 μM TPEN was added and the reaction incubated for 90 min at 37° C. The enzymatic reaction was quenched by addition of 15 μl of 6.1N TCA, 100% Final Concentration is 20%, 35 μl of 8.5 mM phenyl glyoxal (final concentration 4 mM) is then added and the reaction is incubated for 30 min at 37° C.
After 30 minutes the plates are spun down to remove all precipitate. The enzyme reaction was quenched with an equal volume of methanol containing internal standard (modified citrulline). Samples were loaded onto the Rapid Fire RF300 system (Agilent) wherein they were first sipped for 1000 ms and then directly loaded to a C18 separations cartridge using a mixture of acetonitrile containing 0.01% formic acid for 3000 ms desalting. The flow rate of the mobile phase was 1.5 ml/min.
The dwell time for each transition was set at 200 ms, and the ESI voltage was used at 5500 with a source temperature of 400° C. Extracted ion peaks for each transition were integrated using the Rapid Fire Integrator software. Peak area of analyte was normalized with internal standard.).

Where [1] appears, read: human PAD4, rapid-fire mass spectrum (RFMS) assay, read-out: hPAD4 RFMS IC50.
Setting [2] is: hPAD4 RFMS IC50, human PAD4, rapid-fire mass spectrum (RFMS) assay.

Like-named read-outs stand apart in the source and are kept apart here.

Sequence of human PAD4 (hPAD4) (Q9UM07 whole entry): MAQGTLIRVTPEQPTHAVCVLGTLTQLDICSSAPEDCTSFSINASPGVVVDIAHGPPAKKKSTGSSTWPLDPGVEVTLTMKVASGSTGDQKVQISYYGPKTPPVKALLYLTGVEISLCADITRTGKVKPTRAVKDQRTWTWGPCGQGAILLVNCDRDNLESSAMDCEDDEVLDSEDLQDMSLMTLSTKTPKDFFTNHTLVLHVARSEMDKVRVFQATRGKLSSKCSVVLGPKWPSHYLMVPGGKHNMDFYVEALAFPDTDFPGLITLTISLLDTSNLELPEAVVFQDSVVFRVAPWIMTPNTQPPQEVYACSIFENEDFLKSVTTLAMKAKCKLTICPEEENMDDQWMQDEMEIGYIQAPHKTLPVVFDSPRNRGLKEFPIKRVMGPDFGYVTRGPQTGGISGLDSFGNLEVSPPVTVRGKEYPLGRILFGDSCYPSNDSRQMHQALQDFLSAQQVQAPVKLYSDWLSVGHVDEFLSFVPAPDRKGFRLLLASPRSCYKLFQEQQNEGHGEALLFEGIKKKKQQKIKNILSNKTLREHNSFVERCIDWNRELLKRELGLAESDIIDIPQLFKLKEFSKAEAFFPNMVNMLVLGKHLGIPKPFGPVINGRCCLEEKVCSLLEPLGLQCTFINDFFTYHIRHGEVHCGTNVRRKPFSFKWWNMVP

Turning to `COc1cc(C(=O)N2C[C@H]3CC[C@@H]2[C@@H]3N)cc2nc(-c3cc4cccc(C5CC(NC(C)=O)C5)c4n3CC3CC3)n(C)c12` (stereo partly drawn) [Example 57, N-[3-(2-{5-[(1R,4R,7R)-7-amino-2-azabicyclo[2.2.1]heptane-2-carbonyl]-7-methoxy-1-methyl-1H-1,3-benzodiazol-2-yl}-1-(cyclopropylmethyl)-1H-indol-7-yl)cyclobutyl]acetamide], the IC50 under setting [1] was 10 nM.

The compound `COc1cc(C(=O)N2C[C@H]3CC[C@@H]2[C@@H]3N)cc2nc(-c3cc4cccc(C5CN(C(=O)CC#N)C5)c4n3CC3CC3)n(C)c12` [Example 77, 3-[3-(2-{5-[(1R,4R,7R)-7-amino-2-azabicyclo[2.2.1]heptane-2-carbonyl]-7-methoxy-1-methyl-1H-1,3-benzodiazol-2-yl}-1-(cyclopropylmethyl)-1H-indol-7-yl)azetidin-1-yl]-3-oxopropanenitrile] came in with an IC50 under setting [2] of 38 nM.

Take `COc1cc(C(=O)N2C[C@H]3CC[C@@H]2[C@@H]3N)cc2nc(-c3cc4cccc(C5CC(NC(C)=O)C5)c4n3CC3CC3)n(C)c12` (single isomer, unassigned) [Example 59]: the IC50 under setting [1] is 59 nM.

Under setting [2], `COc1cc(C(=O)N2C[C@H]3CC[C@@H]2[C@@H]3N)cc2nc(-c3cc4cccc(CCC#N)c4n3CC3CC3)n(C)c12` [Example 19, 3-(2-{5-[(1R,4R,7R)-7-amino-2-azabicyclo[2.2.1]heptane-2-carbonyl]-7-methoxy-1-methyl-1H-1,3-benzodiazol-2-yl}-1-(cyclopropylmethyl)-1H-indol-7-yl)propanenitrile] registered an IC50 of 90 nM.

For `COc1cc(C(=O)N2C[C@H]3CC[C@@H]2[C@@H]3N)cc2nc(-c3cc4cccc(Nc5c(C)n[nH]c5C)c4n3CC3CC3)n(C)c12` [Example 172, ((1R,4R,7R)-7-amino-2-azabicyclo[2.2.1]heptan-2-yl)(2-(1-(cyclopropylmethyl)-7-((3,5-dimethyl-1H-pyrazol-4-yl)amino)-1H-indol-2-yl)-7-methoxy-1-methyl-1H-benzo[d]imidazol-5-yl)methanone], the IC50 under setting [2] was determined as 43 nM.

For the compound `COc1cc(C(=O)N2CC3CCC2C3N)cc2nc(-c3cc4cccc(Nc5ccccc5P(C)(C)=O)c4n3CC3CC3)n(C)c12` (stereo not shown) [Example 166, (7-amino-2-azabicyclo[2.2.1]heptan-2-yl)(2-(1-(cyclopropylmethyl)-7-((2-(dimethylphosphoryl)phe-nyl)amino)-1H-indol-2-yl)-7-methoxy-1-methyl-1H-benzo[d]imidazol-5-yl)methanone], the IC50 under setting [2] came out at 171 nM.

In the case of `COc1cc(C(=O)N2C[C@H]3CC[C@@H]2[C@@H]3N)cc2nc(-c3cc4cccc(-c5ccc(CNC(C)=O)c(CO)c5)c4n3CC3CC3)n(C)c12` [Example 223, N-(4-(2-(5-((1R,4R,7R)-7-amino-2-azabicyclo[2.2.1]heptane-2-carbonyl)-7-methoxy-1-methyl-1H-benzo[d]imidazol-2-yl)-1-(cyclopropylmethyl)-1H-indol-7-yl)-2-(hydroxymethyl)benzyl) acetamide], the half-inhibitory concentration (IC50) under setting [2] came to 88 nM.

As for `COc1cc(C(=O)N2C[C@H]3CC[C@@H]2[C@@H]3N)cc2nc(-c3cc4cccc(-c5ccc6c(c5)C(=O)NC6)c4n3CC3CC3)n(C)c12` [Example 98, 6-(2-{5-[(1R,4R,7R)-7-amino-2-azabicyclo[2.2.1]heptane-2-carbonyl]-7-methoxy-1-methyl-1H-1,3-benzodiazol-2-yl}-1-(cyclopropylmethyl)-1H-indol-7-yl)-2,3-dihydro-1H-isoindol-1-one], the IC50 under setting [2] was found to be 35 nM.

Under setting [2], `COc1cc(C(=O)N2CC3CCC2[C@@H]3N)cc2nc(-c3cc4cccc(-c5ccco5)c4n3CC3CC3)n(C)c12` (stereo partly drawn) [Example 130, ((7R)-7-amino-2-azabicyclo[2.2.1]heptan-2-yl)(2-(1-(cyclopropylmethyl)-7-(furan-2-yl)-1H-indol-2-yl)-7-methoxy-1-methyl-1H-benzo[d]imidazol-5-yl)methanone] gave an IC50 of 178 nM.

For `COc1cc(C(=O)N2C[C@H]3CC[C@@H]2[C@@H]3N)cc2nc(-c3cc4cccc(C5CN(C(=O)C(C)(C)O)C5)c4n3CC3CC3)n(C)c12` [Example 69, 1-[3-(2-{5-[(1R,4R,7R)-7-amino-2-azabicyclo[2.2.1]heptane-2-carbonyl]-7-methoxy-1-methyl-1H-1,3-benzodiazol-2-yl}-1-(cyclopropylmethyl)-1H-indol-7-yl)azetidin-1-yl]-2-hydroxy-2-methylpropan-1-one], half-maximal inhibition under setting [2] (IC50) was put at 50 nM.

Under setting [2], `COc1cccc(NC(=O)N2CCC(c3cccc4cc(-c5nc6cc(C(=O)N7C[C@H]8CC[C@@H]7[C@@H]8N)cc(OC)c6n5C)n(CC5CC5)c34)CC2)c1` [Example 248, 4-(2-(5-((1R,4R,7R)-7-amino-2-azabicyclo[2.2.1]heptane-2-carbonyl)-7-methoxy-1-methyl-1H-benzo[d]imidazol-2-yl)-1-(cyclopropylmethyl)-1H-indol-7-yl)-N-(3-methoxyphenyl)piperi-dine-1-carboxamide] returned an IC50 of 20 nM.

Consider `COc1cc(C(=O)N2C[C@H]3CC[C@@H]2[C@@H]3N)cc2nc(-c3cc4cccc(Nc5c(C)nn(C)c5C)c4n3CC3CC3C)n(C)c12` (stereo partly drawn) [Example 180, ((1R,4R,7R)-7-amino-2-azabicyclo[2.2.1]heptan-2-yl)(7-methoxy-1-methyl-2-(1-((2-methylcyclopropyl)meth-yl)-7-((1,3,5-trimethyl-1H-pyrazol-4-yl)amino)-1H-indol-2-yl)-1H-benzo[d]imidazol-5-yl)methanone], for which the IC50 under setting [2] was determined as 27 nM.

`COc1cc(C(=O)N2C[C@H]3CC[C@@H]2[C@@H]3N)cc2nc(-c3cc4cccc(C5CN(C(=O)CCc6ccccc6)C5)c4n3CC3CC3)n(C)c12` [Example 79, 1-[3-(2-{5-[(1R,4R,7R)-7-amino-2-azabicyclo[2.2.1]heptane-2-carbonyl]-7-methoxy-1-methyl-1H-1,3-benzodiazol-2-yl}-1-(cyclopropylmethyl)-1H-indol-7-yl)azetidin-1-yl]-3-phenylpropan-1-one] registered an IC50 under setting [2] of 12 nM.

Take `COc1cc(C(=O)N2C[C@H]3CC[C@@H]2[C@@H]3N)cc2nc(-c3cc4cccc(CCCCCCN)c4n3CC3CC3)n(C)c12` [Example 17, (1R,4R,7R)-2-{2-[7-(6-aminohexyl)-1-(cyclopropylmethyl)-1H-indol-2-yl]-7-methoxy-1-methyl-1H-1,3-benzodiazole-5-carbonyl}-2-azabicyclo[2.2.1]heptan-7-amine]: the IC50 under setting [2] amounted to 56 nM.

As to `COc1cc(C(=O)N2C[C@H]3CC[C@@H]2[C@@H]3N)cc2nc(-c3cc4cccc(CCCS(C)(=O)=O)c4n3CC3CC3)n(C)c12` [Example 27, (1R,4R,7R)-2-{2-[1-(cyclopropylmethyl)-7-(3-methanesulfonylpropyl)-1H-indol-2-yl]-7-methoxy-1-methyl-1H-1,3-benzodiazole-5-carbonyl}-2-azabicyclo[2.2.1]heptan-7-amine], the IC50 under setting [2] was 74 nM.

Turning to `COc1cc(C(=O)N2C[C@H]3CC[C@@H]2[C@@H]3N)cc2nc(-c3cc4cccc(CCn5cncn5)c4n3CC3CC3)n(C)c12` [Example 29, (1R,4R,7R)-2-{2-[1-(cyclopropylmethyl)-7-[2-(1H-1,2,4-triazol-1-yl)ethyl]-1H-indol-2-yl]-7-methoxy-1-methyl-1H-1,3-benzodiazole-5-carbonyl}-2-azabicyclo[2.2.1]heptan-7-amine], the concentration for half-maximal inhibition (IC50) under setting [2] was determined as 56 nM.

With `COc1cc(C(=O)N2C[C@H]3CC[C@@H]2[C@@H]3N)cc2nc(-c3cc4cccc(C5CCN(C(=O)COC(C)C)CC5)c4n3CC3CC3)n(C)c12` [Example 239, 1-(4-(2-(5-((1R,4R,7R)-7-amino-2-azabicyclo[2.2.1]heptane-2-carbonyl)-7-methoxy-1-methyl-1H-benzo[d]imidazol-2-yl)-1-(cyclopropylmethyl)-1H-indol-7-yl)piperidin-1-yl)-2-isopropoxyethan-1-one], under setting [2], the midpoint of inhibition, the IC50, lay at 119 nM.

As for `COc1cc(C(=O)N2C[C@H]3CC[C@@H]2[C@@H]3N)cc2nc(-c3cc4cccc(Br)c4n3CC3CC3(F)F)n(C)c12` (stereo partly drawn) [Example 146, ((1R,4R,7R)-7-amino-2-azabicyclo[2.2.1]heptan-2-yl)(2-(7-bromo-1-((2,2-difluorocyclopropyl)meth-yl)-1H-indol-2-yl)-7-methoxy-1-methyl-1H-benzo[d]imidazol-5-yl)methanone], under setting [2], the IC50 amounted to 52 nM.

As to `COC(=O)N1CC=C(c2cccc3cc(-c4nc5cc(C(=O)N6C[C@H]7CC[C@@H]6[C@@H]7N)cc(OC)c5n4C)n(CC4CC4)c23)CC1` [Example 221, methyl 4-(2-(5-((1R,4R,7R)-7-amino-2-azabicyclo[2.2.1]heptane-2-carbonyl)-7-methoxy-1-methyl-1H-benzo[d]imidazol-2-yl)-1-(cyclopropylmethyl)-1H-indol-7-yl)-3,6-dihydropyridine-1(2H)-carboxylate], the midpoint of inhibition under setting [2], the IC50, lay at 77 nM.
